Measured values taken from US8703224B2, “Method to improve water solubility of Rebaudioside D” (PepsiCo, Inc., priority 2009, dated 2014).
Values belong to the compound of their own block, whether it stands above or below them.

Key:
[1] = cited from earlier work
[2] = Oven heating for two hours, mass loss and HPLC check for decomposition; format: physicochemical; conditions: for Net Loss (weight %) / Net Loss: oven, two hours; for Net Loss: 50 g sample
Procedure: An experiment was performed on four samples (50 g each) of commercially available Reb D. The samples were each heated in an oven for two hours at one of four temperatures: 70°, 80°, 90° and 100° C. The samples were then immediately cooled and weighed to determine any loss in mass. Each sample, including the initial sample, was analyzed using gradient reversed-phase High Performance Liquid Chromatography (HPLC) with Evaporative Light Scattering Detection (ELSD) and Ultra-Violet (UV) detection methods to determine if any significant decomposition occurred.

[3] = Water solubility experiment, anhydrous versus non-anhydrous form, solubility versus temperature; format: physicochemical; conditions: after cooling to room temperature and sitting on a bench-top overnight
[4] = Thermal Gravimetric Analysis (TGA); format: physicochemical; conditions: 2 mg sample, 10° C./min
Procedure: In a complementary experiment, commercially available Reb D was examined by Thermal Gravimetric Analysis (TGA). TGA is a type of test that may be performed to determine changes in weight as a function of temperature. The method may be used to determine loss of water, or any other volatiles in a compound as it is heated. A derivative weight loss curve can be used to determine at what temperature weight loss is most apparent. A 2 mg sample was placed into a sample boat on a microgram balance (accurate to +/−1 μg) and heated while monitoring the mass. The temperature was increased at 10° C./min while continuing to monitor the mass and graphing the result as a percentage of the original mass. The results from this analysis are shown in FIG. 2 and indicate mass loss beginning at about 50° C. and continuing to about 104° C. and then remaining stable until reaching approximately 260° C., whereupon a large loss of mass was recorded, which corresponds to the decomposition temperature.

[5] = Differential Scanning calorimetry (DSC); conditions: 40°-300° C., heating at 10° C./min
[6] = Dissolution in water with heating, then cooling to room temperature (stable solution test); format: physicochemical
[7] = HPLC (ELSD/UV) analysis after heating at 100° C. for 120 hours; format: physicochemical; conditions: after heating 120 hours at 100° C.
Procedure: It was discovered that upon heating commercially available Reb D, believed to be a non-anhydrous form of Reb D (i.e., hydrate), compound in an oven to a temperature of 100° C. for 120 hours, a thermally stable anhydrous Reb D product was obtained. […] The top graph indicates ELSD detection, and the bottom graph indicates UV detection results taken at a wavelength of 210 nm.
Additional HPLC chromatogram analysis was performed using both an anhydrous sample of Reb D (i.e., after the sample had undergone the process of heating for 120 hours at 100° C.) and a sample that had undergone heating for 24 hours. […] A decomposition peak estimated to be in the range of 2% of the total mass was found in the analysis results from the anhydrous Reb D sample, but its structure was not determined.

Compound: C=C1C[C@@]23CC[C@H]4[C@@](C)(CCC[C@@]4(C)C(=O)O[C@@H]4O[C@H](CO)[C@@H](O)[C@H](O)[C@H]4O)[C@@H]2CC[C@]1(O[C@@H]1O[C@H](CO)[C@@H](O)[C@H](O[C@@H]2O[C@H](CO)[C@@H](O)[C@H](O)[C@H]2O)[C@H]1O[C@@H]1O[C@H](CO)[C@@H](O)[C@H](O)[C@H]1O)C3 [Reb A, Rebaudioside A]
solubility in aqueous solution ([1]; room temperature): at least 3000 ppm

stable solubility in aqueous solution (room temperature): no more than 450 ppm
decomposition by HPLC ([2]; after two hours at 70°, 80°, 90° and 100° C.): little to no decomposition
Net Loss (weight %) ([2]; 70° C.): 0.38 weight %
Net Loss ([2]; 70° C.): 0.19 g
Net Loss (weight %) ([2]; 80° C.): 0.48 weight %
Net Loss ([2]; 80° C.): 0.24 g
Net Loss (weight %) ([2]; 90° C.): 0.76 weight %
Net Loss ([2]; 90° C.): 0.38 g
Net Loss (weight %) ([2]; 100° C.): 1.36 weight %
Net Loss ([2]; 100° C.): 0.68 g
appearance of water solution ([3]; listed as Reb D hydrate): full of precipitate
decomposition temperature (large loss of mass) [4]: approximately 260 °C
temperature of apparent decomposition (large endothermic event) [5]: about 260 °C
Compound: C=C1C[C@@]23CC[C@H]4[C@@](C)(CCC[C@@]4(C)C(=O)O[C@@H]4O[C@H](CO)[C@@H](O)[C@H](O)[C@H]4O[C@@H]4O[C@H](CO)[C@@H](O)[C@H](O)[C@H]4O)[C@@H]2CC[C@]1(O[C@@H]1O[C@H](CO)[C@@H](O)[C@H](O[C@@H]2O[C@H](CO)[C@@H](O)[C@H](O)[C@H]2O)[C@H]1O[C@@H]1O[C@H](CO)[C@@H](O)[C@H](O)[C@H]1O)C3 [Reb D, Rebaudioside D]
behaviour of heated solution upon cooling (cooled to room temperature (e.g., 25° C.)): precipitates back out of solution within a few hours
precipitation after cooling ([6]; dissolved in water with heating and allowed to cool): precipitating out of solution within a number of hours

Compound: C=C1C[C@@]23CC[C@H]4[C@@](C)(CCC[C@@]4(C)C(=O)O[C@@H]4O[C@H](CO)[C@@H](O)[C@H](O)[C@H]4O)[C@@H]2CC[C@]1(O[C@@H]1O[C@H](CO)[C@@H](O)[C@H](O)[C@H]1O[C@@H]1O[C@H](CO)[C@@H](O)[C@H](O)[C@H]1O)C3 [Stevioside]
solubility in water ([1]; in words): only sparingly soluble in water

appearance of water solution [3]: stayed as a clear solution
decomposition by HPLC retention values [7]: no significant level of decomposition
impurity at the 14.1 minute elution mark ([7]; FIG. 6): about 5 % of the total mass
decomposition peak ([7]; FIG. 7): ~2 % of the total mass
time at room temperature with no precipitating out of solution ([6]; 3000 ppm solution after cooling): at least 24 hours
solution concentration ([6]; dissolved in water with heating, cooled to room temperature): 3000 ppm
Compound: C=C1C[C@@]23CC[C@H]4[C@@](C)(CCC[C@@]4(C)C(=O)O[C@@H]4O[C@H](CO)[C@@H](O)[C@H](O)[C@H]4O[C@@H]4O[C@H](CO)[C@@H](O)[C@H](O)[C@H]4O)[C@@H]2CC[C@]1(O[C@@H]1O[C@H](CO)[C@@H](O)[C@H](O[C@@H]2O[C@H](CO)[C@@H](O)[C@H](O)[C@H]2O)[C@H]1O[C@@H]1O[C@H](CO)[C@@H](O)[C@H](O)[C@H]1O)C3 [anhydrous Reb D, Rebaudioside D]
